Measured values taken from patent US4159373A, “7-Acyl-3-(sulfonic acid and sulfamoyl substituted tetrazolyl thiomethyl) cephalosporins” (SmithKline Corporation, priority 1978, dated 1979).
In brackets after ≈: the same amount, converted by molar mass. Where two headings read alike, the source gives them in different places. Values belong to the compound of their own block, whether it stands above or below them.

Legend:
[1] = tested on: Psuedo. sp. HH 63; assay: MIC in vitro; assay type: cell-based, Pseudo. aeruginosa
Description: (§1) The compounds of Formula I have exceptional antibacterial activity against both Gram-positive and Gram-negative organisms. Minimum inhibitory concentrations (MIC's) ranged from 0.2 to <200 μg./ml. in in vitro testing.

[2] = tested on: S. aureus HH 127; assay: MIC in vitro; assay type: cell-based; details: Staphylococcus aureus
Description: as §1

[3] = tested on: Proteus morgani 179; assay: MIC in vitro; assay type: cell-based
Description: as §1

[4] = tested on: E. coli SK 12140; assay: MIC in vitro; assay type: cell-based
Description: as §1

[5] = tested on: Strep. Faecalis HH 34358; assay: MIC in vitro; assay type: cell-based; details: Enterococcus faecalis
Description: as §1

[6] = tested on: Kleb. pneumoniae 982; assay: MIC in vitro; assay type: cell-based
[7] = tested on: Pseudo. aeruginosa 647; assay: MIC in vitro; assay type: cell-based
[8] = tested on: Entero. aerog. ATCC 13048; assay: MIC in vitro; assay type: cell-based, Enterobacter aerogenes; details: Klebsiella aerogenes
Description: as §1

[9] = tested on: Staph. aureus 674; assay: MIC in vitro; assay type: cell-based
[10] = tested on: E. coli 12140; assay: In vivo mouse protection, E. coli 12140; details: Escherichia coli, 12140, sc, s.c.
[11] = tested on: E. coli 804; assay: MIC in vitro; assay type: cell-based
[12] = tested on: Staph. aureus 671; assay: MIC in vitro; assay type: cell-based
[13] = tested on: Enterobacter cloacae 921; assay: MIC in vitro; assay type: cell-based
[14] = tested on: Serra. marc ATCC 13880; assay: MIC in vitro; assay type: cell-based, Serratia marcescens; details: Serratia marcescens
Description: as §1

[15] = tested on: Kleb. pneumo. 4200; assay: In vivo mouse protection, Kleb. pneumo. 4200; details: sc
[16] = tested on: Kleb. pneumo. SK 4200; assay: MIC in vitro; assay type: cell-based, Kleb. pneumoniae; details: Klebsiella pneumoniae
Description: as §1

[17] = tested on: Kleb. pneumo. SK 1200; assay: MIC in vitro; assay type: cell-based, Kleb. pneumoniae; details: Klebsiella pneumoniae
Description: as §1

[18] = tested on: Proteus mirabilis 444; assay: MIC in vitro; assay type: cell-based
[19] = tested on: Salmonella ATCC 12176; assay: MIC in vitro; assay type: cell-based; details: Salmonella, ATCC12176, Table 1, read-out: MIC in vitro
Description: as §1

[20] = tested on: E. coli HH 33779; assay: MIC in vitro; assay type: cell-based; details: Escherichia coli, HH33779, Table 1; E. coli HH 33779; read-out: MIC in vitro
Description: as §1

[21] = tested on: S. aureus SK 23390; assay: MIC in vitro; assay type: cell-based; details: Staphylococcus aureus, SK23390, Table 1; S. aureus SK 23390; read-out: MIC in vitro
Description: as §1

[22] = Example 55 table, Staph. aureus HH127, read-out: MIC
[23] = Example 55 table, read-out: MIC
[24] = Example 55 table, Strep. faecalis HH 34358, read-out: MIC
[25] = ATCC13048, Example 55 table, Enterobacter aerogenes 13048, read-out: MIC
[26] = Staphylococcus aureus, 674, Example 55 table
[27] = Example 55, E. coli SKF 12140, read-out: ED50
[28] = Enterobacter cloacae, 921, Example 55 table
[29] = ATCC13880, Example 55 table, Serratia marcescens ATCC 13880, read-out: MIC
[30] = Example 55, s.c., K. pneumo. SK&F 4200, read-out: ED50
[31] = Example 55 table, Kleb. pneumoniae SK&F 4200, read-out: MIC
[32] = Example 55 table, Kleb. pneumoniae SK&F 1200, read-out: MIC
[33] = Example 54 table, read-out: MIC

MIC ([1]; Pseudomonas aeruginosa, Example 55 table, Pseudo. aeruginosa HH63, read-out: MIC): > 100 µg/mL
MIC [2, 22]: 1.6 µg/mL (≈ 2.88 µM)
MIC [3, 23]: > 100 µg/mL
MIC ([4]; Escherichia coli, SK12140, Example 55 table, E. coli SK&F 12140, read-out: MIC): 1.6 µg/mL (≈ 2.88 µM)
MIC [5, 24]: 100 µg/mL (≈ 180 µM)
MIC ([6]; Klebsiella pneumoniae, Example 55 table, read-out: MIC): > 100 µg/mL
MIC ([7]; Pseudomonas aeruginosa, Example 55 table, read-out: MIC): > 100 µg/mL
MIC [8, 25]: 50 µg/mL (≈ 90 µM)
MIC [9, 26]: 1.6 µg/mL (≈ 2.88 µM)
MIC ([11]; Escherichia coli, Example 55 table, read-out: MIC): > 100 µg/mL
MIC ([12]; Staphylococcus aureus, Example 55 table): 6.3 µg/mL (≈ 11.3 µM)
MIC [13, 28]: 25 µg/mL (≈ 45 µM)
MIC [14, 29]: > 100 µg/mL
MIC [16, 31]: 0.2 µg/mL (≈ 0.36 µM)
MIC [17, 32]: ≤ 0.1 µg/mL
MIC [18, 23]: 0.4 µg/mL (≈ 0.72 µM)
Compound: NCc1cccc(CC(=O)NC2C(=O)N3C(C(=O)O)=C(CSc4nnnn4CS(=O)(=O)O)CSC23)c1 (centres unmarked) [Example 55, 7-(3-Aminomethylphenylacetamido)-3-(1-sulfomethyltetrazol-5-ylthiomethyl)-3-cephem-4-carboxylic acid]
ED50 [10, 27]: 1.82 mg/kg
ED50 [15, 30]: < 0.19 mg/kg

Compound: Cc1nnc(SCC2=C(C(=O)O)N3C(=O)[C@@H](NC(=O)Cn4cnnn4)[C@H]3SC2)s1 [XIII, Cefazolin, reference compound]
MIC ([1]; Example 55 table, Pseudo. aeruginosa HH63): > 100 µg/mL
MIC ([1]; Pseudomonas aeruginosa, Example 54 table, Pseudo. aeruginosa HH 63, read-out: MIC): > 100 µg/mL
MIC ([1]; Pseudomonas aeruginosa, Table 1, Psuedo. sp. HH 63, read-out: MIC in vitro): > 200 µg/mL
MIC ([2]; HH127, Example 54 table, Staph. aureus HH 127): 0.8 µg/mL (≈ 1.76 µM)
MIC ([2]; HH127, Table 1, S. aureus HH 127, read-out: MIC in vitro): 0.4 µg/mL (≈ 0.88 µM)
MIC [2, 22]: 0.4 µg/mL (≈ 0.88 µM)
MIC [3, 33]: > 100 µg/mL
MIC [3, 23]: > 100 µg/mL
MIC ([3]; Table 1, read-out: MIC in vitro): 200 µg/mL (≈ 440 µM)
MIC [19]: 0.8 µg/mL (≈ 1.76 µM)
MIC [20]: 0.8 µg/mL (≈ 1.76 µM)
MIC [21]: 0.2 µg/mL (≈ 0.44 µM)
MIC ([4]; Escherichia coli, SK12140, Example 54 table, E. coli SK&F 12140, read-out: MIC): 0.8 µg/mL (≈ 1.76 µM)
MIC ([4]; Escherichia coli, SK12140, Table 1, E. coli SK 12140, read-out: MIC in vitro): 0.8 µg/mL (≈ 1.76 µM)
MIC ([4]; Example 55 table, E. coli SK&F 12140): 0.8 µg/mL (≈ 1.76 µM)
MIC ([5]; Example 54 table, Strep. faecalis HH 34358, read-out: MIC): 25 µg/mL (≈ 55 µM)
MIC [5, 24]: 12.5 µg/mL (≈ 27.5 µM)
MIC ([5]; Table 1, Strep. Faecalis HH 34358, read-out: MIC in vitro): 6.3 µg/mL (≈ 13.9 µM)
MIC ([6]; Example 55 table): > 100 µg/mL
MIC ([6]; Klebsiella pneumoniae, Example 54 table, read-out: MIC): > 100 µg/mL
MIC ([7]; Example 55 table): > 100 µg/mL
MIC ([7]; Pseudomonas aeruginosa, Example 54 table, read-out: MIC): > 100 µg/mL
MIC ([8]; ATCC13048, Example 54 table, Enterobacter aerogenes 13048, read-out: MIC): 3.1 µg/mL (≈ 6.82 µM)
MIC [8, 25]: 3.1 µg/mL (≈ 6.82 µM)
MIC ([8]; ATCC13048, Table 1, Entero. aerog. ATCC 13048, read-out: MIC in vitro): 1.6 µg/mL (≈ 3.52 µM)
MIC ([9]; Staphylococcus aureus, 674, Example 54 table): 0.4 µg/mL (≈ 0.88 µM)
MIC [9, 26]: 0.2 µg/mL (≈ 0.44 µM)
ED50 ([10]; Example 54, E. coli SKF 12140, read-out: ED50): 4.4 mg/kg
ED50 [10, 27]: 3.12 mg/kg
ED50 ([10]; Table 2, E. coli 12140, read-out: ED50 in vivo): 4 mg/kg
MIC ([11]; Escherichia coli, Example 54 table, read-out: MIC): 100 µg/mL (≈ 220 µM)
MIC ([11]; Example 55 table): 100 µg/mL (≈ 220 µM)
MIC ([12]; Staphylococcus aureus, 671, Example 55 table): 12.5 µg/mL (≈ 27.5 µM)
MIC ([12]; Staphylococcus aureus, Example 54 table): 0.8 µg/mL (≈ 1.76 µM)
MIC ([13]; Enterobacter cloacae, 921, Example 54 table): 25 µg/mL (≈ 55 µM)
MIC [13, 28]: 6.3 µg/mL (≈ 13.9 µM)
MIC ([14]; ATCC13880, Example 54 table, Serratia marcescens ATCC 13880, read-out: MIC): > 100 µg/mL
MIC [14, 29]: > 100 µg/mL
MIC ([14]; ATCC13880, Table 1, Serra. marc ATCC 13880, read-out: MIC in vitro): 200 µg/mL (≈ 440 µM)
ED50 ([15]; Example 54, s.c., K. pneumo. SKF 4200, read-out: ED50): 0.7 mg/kg
ED50 [15, 30]: 8.7 mg/kg
ED50 ([15]; Table 2, Kleb. pneumo. 4200, s.c., read-out: ED50 in vivo): 6.25 mg/kg
MIC ([16]; Example 54 table, Kleb. pneumoniae SK&F 4200, read-out: MIC): 3.1 µg/mL (≈ 6.82 µM)
MIC [16, 31]: 1.6 µg/mL (≈ 3.52 µM)
MIC ([16]; Table 1, Kleb. pneumo. SK 4200, read-out: MIC in vitro): 0.8 µg/mL (≈ 1.76 µM)
MIC ([17]; Example 54 table, Kleb. pneumoniae SK&F 1200, read-out: MIC): 0.4 µg/mL (≈ 0.88 µM)
MIC [17, 32]: 0.8 µg/mL (≈ 1.76 µM)
MIC ([17]; Table 1, Kleb. pneumo. SK 1200, read-out: MIC in vitro): 0.8 µg/mL (≈ 1.76 µM)
MIC [18, 33]: 3.1 µg/mL (≈ 6.82 µM)
MIC ([18]; Example 55 table): 3.1 µg/mL (≈ 6.82 µM)
